One assay has as its target T1, PRMT5/MEP50 (Homo sapiens, UniProt O14744).
T1 construct: Flag-PRMT5; made in house; host or cells: Spodoptera frugiperda (SF9), baculovirus
The experiment in a line: PRMT5 Biochemical Assay (PRMT5/MEP50 enzyme assay on histone H4 peptide substrate, 3H-SAM Flashplate). As to conditions: PRMT5 biochemical assay; read-out: Biochemical IC50. Summed up: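 Sf9-expressed Flag-PRMT5/6His-MEP50 preincubated with compound 30 min at 25 °C, then methylation of biotinylated H4 1-15 peptide started with ³H-SAM in 20 mM Bicine pH 7.6, 1 mM TCEP, 0.005% BSG, 0.002% Tween20.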

The test system of assay [1] is symmetric di-methyl arginine in Z-138 cells. The experiment in a line: Z-138 Methylation Assay (In Cell Western for symmetric di-methyl arginine and DNA content). The note with it: Homo sapiens, read-out: ICW EC50. Format: cell-based. From the text:
Z-138 suspension cells were purchased from ATCC (American Type Culture Collection, Manassas, Va.). RPMI/Glutamax medium, penicillin-streptomycin, heat inactivated fetal bovine serum, and D-PBS were purchased from Life Technologies, Grand Island, N.Y., USA. Odyssey blocking buffer, 800CW goat anti-rabbit IgG (H+L) antibody, and Licor Odyssey infrared scanner were purchased from Licor Biosciences, Lincoln, Nebr., USA. Symmetric di-methyl arginine antibody was purchased from EMD Millipore, Billerica, Mass., USA. 16% Paraformaldehyde was purchased from Electron Microscopy Sciences, Hatfield, Pa., USA.
Z-138 suspension cells were maintained in growth medium (RPMI 1640 supplemented with 10% v/v heat inactivated fetal bovine serum and 100 units/mL penicillin-streptomycin) and cultured at 37° C. under 5% CO2.
Cell Treatment, in Cell Western (ICW) for Detection of Symmetric Di-Methyl Arginine and DNA Content.
Z-138 cells were seeded in assay medium at a concentration of 50,000 cells per mL to a 384-well cell culture plate with 50 μL per well. Compound (100 nL) from 384 well source plates was added directly to 384 well cell plate. Plates were incubated at 37° C., 5% CO2 for 96 hours. After four days of incubation, 40 μL of cells from incubated plates were added to poly-D-lysine coated 384 well culture plates (BD Biosciences 356697). Plates were incubated at room temperature for 30 minutes then incubated at 37° C., 5% CO2 for 5 hours. After the incubation, 40 μL per well of 8% paraformaldehyde in PBS (16% paraformaldahyde was diluted to 8% in PBS) was added to each plate and incubated for 30 minutes. Plates were transferred to a Biotek 405 plate washer and washed 5 times with 100 μL per well of wash buffer (1×PBS with 0.1% Triton X-100 (v/v)). Next 30 μL per well of Odyssey blocking buffer were added to each plate and incubated 1 hour at room temperature. Blocking buffer was removed and 20 μL per well of primary antibody was added (symmetric di-methyl arginine diluted 1:100 in Odyssey buffer with 0.1% Tween 20 (v/v)) and plates were incubated overnight (16 hours) at 4° C. Plates were washed 5 times with 100 μL per well of wash buffer. Next 20 μL per well of secondary antibody was added (1:200 800CW goat anti-rabbit IgG (H+L) antibody, 1:1000 DRAQ5 (Biostatus limited) in Odyssey buffer with 0.1% Tween 20 (v/v)) and incubated for 1 hour at room temperature. The plates were washed 5 times with 100 μL per well wash buffer then 1 time with 100 μL per well of water. Plates were allowed to dry at room temperature then imaged on the Licor Odyssey machine which measures integrated intensity at 700 nm and 800 nm wavelengths. Both 700 and 800 channels were scanned.
First, the ratio for each well was determined by:
Each plate included fourteen control wells of DMSO only treatment (minimum inhibition) as well as fourteen control wells for maximum inhibition treated with 3 μM of a reference compound (Background wells). The average of the ratio values for each control type was calculated and used to determine the percent inhibition for each test well in the plate. Reference compound was serially diluted three-fold in DMSO for a total of nine test concentrations, beginning at 3 μM. Percent inhibition was determined and IC50 curves were generated using triplicate wells per concentration of compound.

The test system of another assay is Z-138 cells. The experiment in a line: Z-138 Proliferation Assay (Cell Titer Glo, 5 days). Format: cell-based. As to conditions: Homo sapiens, 120 h. The method, boiled down:
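Z-138 cells in RPMI with 10% FBS exposed 5 days at 37 °C to nine-point 3-fold dilutions, top 20 μM final, 0.2% DMSO, triplicate. ATP-based CellTiter-Glo luminescence; IC50 from 4-parameter fit of normalized curves.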
On the technique in general: In ATP-based viability assays light output follows the ATP content of the culture.

T1 sequence (O14744 with tags, fused parts or gaps): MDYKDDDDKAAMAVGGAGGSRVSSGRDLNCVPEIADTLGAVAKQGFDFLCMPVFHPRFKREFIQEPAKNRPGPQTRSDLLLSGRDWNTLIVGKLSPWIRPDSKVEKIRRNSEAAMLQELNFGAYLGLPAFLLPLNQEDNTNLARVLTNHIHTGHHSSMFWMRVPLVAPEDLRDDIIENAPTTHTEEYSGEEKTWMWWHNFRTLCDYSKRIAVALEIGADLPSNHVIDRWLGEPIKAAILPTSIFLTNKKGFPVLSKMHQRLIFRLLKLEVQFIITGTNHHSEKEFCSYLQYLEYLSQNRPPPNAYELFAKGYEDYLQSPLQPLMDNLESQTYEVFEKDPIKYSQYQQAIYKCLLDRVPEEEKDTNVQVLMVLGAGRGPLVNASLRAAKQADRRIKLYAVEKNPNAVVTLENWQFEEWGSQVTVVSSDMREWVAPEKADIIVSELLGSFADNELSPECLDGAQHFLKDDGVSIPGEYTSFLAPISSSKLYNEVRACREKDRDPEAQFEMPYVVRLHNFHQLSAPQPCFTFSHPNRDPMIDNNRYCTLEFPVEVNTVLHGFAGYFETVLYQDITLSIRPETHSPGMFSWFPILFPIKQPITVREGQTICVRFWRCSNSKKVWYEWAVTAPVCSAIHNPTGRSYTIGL
T1 sequence (Q9BQA1 with tags, fused parts or gaps partner limits assumed): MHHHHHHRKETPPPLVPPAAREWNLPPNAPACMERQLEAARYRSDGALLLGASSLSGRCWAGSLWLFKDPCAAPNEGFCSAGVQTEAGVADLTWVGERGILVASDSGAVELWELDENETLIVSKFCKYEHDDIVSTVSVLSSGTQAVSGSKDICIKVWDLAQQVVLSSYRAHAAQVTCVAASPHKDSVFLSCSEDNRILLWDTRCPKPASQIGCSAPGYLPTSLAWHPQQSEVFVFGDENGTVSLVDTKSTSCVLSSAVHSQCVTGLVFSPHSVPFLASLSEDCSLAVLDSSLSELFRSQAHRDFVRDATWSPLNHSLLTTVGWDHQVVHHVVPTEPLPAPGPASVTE

Consider `Nc1ncnc2c1ncn2[C@@H]1O[C@H](CSCC[C@@H](N)CO)[C@@H](O)[C@H]1O` [Compound 92-1, (2S, 3S, 4R, 5R)-2-((((R)-3-amino-4-hydroxybutyl)thio)methyl)-5-(6-amino-9H-purin-9-yl)tetrahydrofuran-3,4-diol], for which, at PRMT5/MEP50, the 50% inhibitory concentration (IC50) (usually the concentration at which inhibition is half-maximal) was under 100 nM. In addition, the EC50 (in general, the concentration at which the effect is half-maximal) in assay [1] lay in the range of 1 to 10 µM; in the assay with Z-138 cells it was 10 to 50 µM.

The record behind these values is patent publication US20170198006A1, “PRMT5 INHIBITORS AND USES THEREOF” (Epizyme, Inc., priority 2014, published 2017).
